Experimental data published in US20080132505A1 (Glaxo Group Limited, priority 2004, published 2008).

Molecular target: human cannabinoid CB2 receptor (Homo sapiens, UniProt P34972)
Experiment: Cannabinoid CB2 receptor agonist activity (yeast reporter assay, FDGlu fluorescence)
Assay type: cell-based
Conditions: for EC50: EC50 value at the cloned human cannabinoid CB2 receptor; for Emax: read-out: efficacy value (Emax relative to HU210) at the cloned human cannabinoid CB2 receptor
Summary of the method: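 Agonist-driven growth was read as fluorescein fluorescence (ex 485, em 535 nm) from FDGlu cleavage after 24 h at 30 °C, using yeast strain MMY23 carrying human CB2 and chimeric Gpa1/Gαi3. Medium had 10 mM 3-aminotriazole, pH 7.0; four-parameter fits gave EC50, with Emax and EMR versus HU210.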

human cannabinoid CB2 receptor, sequence (P34972 whole entry): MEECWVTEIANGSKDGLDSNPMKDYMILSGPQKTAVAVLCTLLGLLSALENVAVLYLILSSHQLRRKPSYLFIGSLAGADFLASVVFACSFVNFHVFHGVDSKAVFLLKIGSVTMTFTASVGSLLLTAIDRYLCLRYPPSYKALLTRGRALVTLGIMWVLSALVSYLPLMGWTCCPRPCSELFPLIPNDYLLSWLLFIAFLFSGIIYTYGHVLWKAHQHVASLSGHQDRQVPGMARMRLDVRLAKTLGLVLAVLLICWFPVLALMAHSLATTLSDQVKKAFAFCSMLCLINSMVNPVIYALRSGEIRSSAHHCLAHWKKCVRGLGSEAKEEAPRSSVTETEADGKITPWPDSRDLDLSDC

SMILES | EC50 | Emax
Cc1ccc(Cl)cc1Nc1ncc(C(=O)NCC2CCCC2)c(C(F)(F)F)n1 [Example 183, 2-(5-Chloro-2-methylphenylamino)-4-trifluoromethyl-pyrimidine-5-carboxylic acid (cyclopentylmethyl)-amide] | 20 to 300 nM | > 50%
Cc1ccc(Nc2ncc(C(=O)NCC3CCOCC3)c(C(F)(F)F)n2)cc1Cl [Example 184, 2-(3-Chloro-4-methylphenylamino)-4-trifluoromethyl-pyrimidine-5-carboxylic acid (tetrahydropyran-4-ylmethyl)-amide] | 20 to 300 nM | > 50%
Cc1c(Cl)cccc1Nc1ncc(C(=O)NCC2CCOCC2)c(C(F)(F)F)n1 [Example 185, 2-(3-Chloro-2-methylphenylamino)-4-trifluoromethyl-pyrimidine-5-carboxylic acid (tetrahydropyran-4-ylmethyl)-amide] | 20 to 300 nM | > 50%
COc1cc(Nc2ncc(C(=O)NCC3CCOCC3)c(C(F)(F)F)n2)ccc1Cl [Example 186, 2-(4-Chloro-3-methoxyphenylamino)-4-trifluoromethyl-pyrimidine-5-carboxylic acid (tetrahydropyran-4-ylmethyl)-amide] | 20 to 300 nM | > 50%
Cc1cc(Nc2ncc(C(=O)NCC3CCOCC3)c(C(F)(F)F)n2)ccc1Cl [Example 187, 2-(4-Chloro-3-methylphenylamino)-4-trifluoromethyl-pyrimidine-5-carboxylic acid (tetrahydropyran-4-ylmethyl)-amide] | 20 to 300 nM | > 50%
CN(CC1CCC1)C(=O)c1cnc(Nc2cccc(Cl)c2)nc1C(F)(F)F [Example 188, 2-(3-Chlorophenylamino)-4-trifluoromethyl-pyrimidine-5-carboxylic acid cyclobutylmethyl-methyl-amide] | 20 to 300 nM | > 50%
CN(CC1CCCCC1)C(=O)c1cnc(Nc2cccc(Cl)c2)nc1C(F)(F)F [Example 189, 2-(3-Chlorophenylamino)-4-trifluoromethyl-pyrimidine-5-carboxylic acid cyclohexylmethyl-methyl-amide] | 20 to 300 nM | > 50%
CN(CC1CCCC1)C(=O)c1cnc(Nc2cccc(Cl)c2)nc1C(F)(F)F [Example 190, 2-(3-Chlorophenylamino)-4-trifluoromethyl-pyrimidine-5-carboxylic acid cyclopentylmethyl-methyl-amide] | 20 to 300 nM | > 50%
O=C(NCC1CCC1)c1cnc(Nc2cc(Cl)ccc2F)nc1C(F)(F)F [Example 191, 2-(5-Chloro-2-fluorophenylamino)-4-trifluoromethyl-pyrimidine-5-carboxylic acid cyclobutylmethyl-amide] | 20 to 300 nM | > 50%
O=C(NCC1CCC1)c1cnc(Nc2cc(F)cc(F)c2)nc1C(F)(F)F [Example 192, 2-(3,5-Difluorophenylamino)-4-trifluoromethyl-pyrimidine-5-carboxylic acid cyclobutylmethyl-amide] | 20 to 300 nM | > 50%
O=C(NCC1CCC1)c1cnc(Nc2ccc(OC(F)(F)F)c(Cl)c2)nc1C(F)(F)F [Example 193, 2-(3-Chloro-4-trifluoromethoxyphenylamino)-4-trifluoromethyl-pyrimidine-5-carboxylic acid cyclobutylmethyl-amide] | 20 to 300 nM | > 50%
O=C(NCC1CCC1)c1cnc(Nc2cccc(Cl)c2F)nc1C(F)(F)F [Example 195, 2-(3-Chloro-2-fluorophenylamino)-4-trifluoromethyl-pyrimidine-5-carboxylic acid cyclobutylmethyl-amide] | 20 to 300 nM | > 50%
O=C(NCC1CCC1)c1cnc(Nc2ccc(C(F)(F)F)c(F)c2)nc1C(F)(F)F [Example 196, 2-(3-Fluoro-4-trifluoromethylphenylamino)-4-trifluoromethyl-pyrimidine-5-carboxylic acid cyclobutylmethyl-amide] | 20 to 300 nM | > 50%
N#Cc1ccc(Nc2ncc(C(=O)NCC3CCC3)c(C(F)(F)F)n2)cc1Cl [Example 197] |  | > 50%
O=C(NCC1CCC1)c1cnc(Nc2cccc(F)c2)nc1C(F)(F)F [Example 198, 2-(3-Fluorophenylamino)-4-trifluoromethyl-pyrimidine-5-carboxylic acid cyclobutylmethyl-amide] | 20 to 300 nM | > 50%
O=C(NCC1CCC1)c1cnc(Nc2cccc(Br)c2)nc1C(F)(F)F [Example 199, 2-(3-Bromophenylamino)-4-trifluoromethyl-pyrimidine-5-carboxylic acid cyclobutylmethyl-amide] | 20 to 300 nM | > 50%
O=C(NCC1CCC1)c1cnc(Nc2cccc(Cl)c2Cl)nc1C(F)(F)F [Example 200, 2-(2,3-Dichlorophenylamino)-4-trifluoromethyl-pyrimidine-5-carboxylic acid cyclobutylmethyl-amide] | 20 to 300 nM | > 50%
O=C(NCC1CCC1)c1cnc(Nc2ccc(Cl)cc2Cl)nc1C(F)(F)F [Example 201, 2-(2,4-Dichlorophenylamino)-4-trifluoromethyl-pyrimidine-5-carboxylic acid cyclobutylmethyl-amide] | 20 to 300 nM | > 50%
O=C(NCC1CCC1)c1cnc(Nc2cc(Cl)ccc2Cl)nc1C(F)(F)F [Example 202, 2-(2,5-Dichlorophenylamino)-4-trifluoromethyl-pyrimidine-5-carboxylic acid cyclobutylmethyl-amide] | 20 to 300 nM | > 50%
O=C(NCC1CCC1)c1cnc(Nc2c(Cl)cccc2Cl)nc1C(F)(F)F [Example 203, 2-(2,6-Dichlorophenylamino)-4-trifluoromethyl-pyrimidine-5-carboxylic acid cyclobutylmethyl-amide] | 20 to 300 nM | > 50%
O=C(NCC1CCC1)c1cnc(Nc2ccc(Cl)c(Cl)c2)nc1C(F)(F)F [Example 204, 2-(3,4-Dichlorophenylamino)-4-trifluoromethyl-pyrimidine-5-carboxylic acid cyclobutylmethyl-amide] | 20 to 300 nM | > 50%
COc1cccc(Nc2ncc(C(=O)NCC3CCC3)c(C(F)(F)F)n2)c1 [Example 205, 2-(3-Methoxyphenylamino)-4-trifluoromethyl-pyrimidine-5-carboxylic acid cyclobutylmethyl-amide] | 20 to 300 nM | > 50%
O=C(NCC1CCC1)c1cnc(Nc2cc(Cl)cc(Cl)c2)nc1C(F)(F)F [Example 206, 2-(3,5-Dichlorophenylamino)-4-trifluoromethyl-pyrimidine-5-carboxylic acid cyclobutylmethyl-amide] | 20 to 300 nM | > 50%
O=C(NC1CCCC1)c1cnc(Nc2cccc(Br)c2)nc1C(F)(F)F [Example 207, 2-(3-Bromophenylamino)-4-trifluoromethyl-pyrimidine-5-carboxylic acid cyclopentylamide] | 20 to 300 nM | > 50%
O=C(NC1CCCC1)c1cnc(Nc2ccc(Cl)cc2Cl)nc1C(F)(F)F [Example 208, 2-(2,4-Dichlorophenylamino)-4-trifluoromethyl-pyrimidine-5-carboxylic acid cyclopentylamide] | 20 to 300 nM | > 50%
